Values quoted from earlier work, collected in US20090023693A1, “NEW DROSPIRENONE/17BETA-ESTRADIOL REGIMEN, PHARMACEUTICAL COMBINATION PRODUCT AND KIT FOR PERFORMING THIS REGIMEN” (priority 2007, published 2009).

Assays:
[1] = oral vs transdermal
[2] = molecular target: T1, mineralocorticoid receptor (Homo sapiens, UniProt P08235); settings: compared with aldosterone
T1 sequence (P08235 1-984): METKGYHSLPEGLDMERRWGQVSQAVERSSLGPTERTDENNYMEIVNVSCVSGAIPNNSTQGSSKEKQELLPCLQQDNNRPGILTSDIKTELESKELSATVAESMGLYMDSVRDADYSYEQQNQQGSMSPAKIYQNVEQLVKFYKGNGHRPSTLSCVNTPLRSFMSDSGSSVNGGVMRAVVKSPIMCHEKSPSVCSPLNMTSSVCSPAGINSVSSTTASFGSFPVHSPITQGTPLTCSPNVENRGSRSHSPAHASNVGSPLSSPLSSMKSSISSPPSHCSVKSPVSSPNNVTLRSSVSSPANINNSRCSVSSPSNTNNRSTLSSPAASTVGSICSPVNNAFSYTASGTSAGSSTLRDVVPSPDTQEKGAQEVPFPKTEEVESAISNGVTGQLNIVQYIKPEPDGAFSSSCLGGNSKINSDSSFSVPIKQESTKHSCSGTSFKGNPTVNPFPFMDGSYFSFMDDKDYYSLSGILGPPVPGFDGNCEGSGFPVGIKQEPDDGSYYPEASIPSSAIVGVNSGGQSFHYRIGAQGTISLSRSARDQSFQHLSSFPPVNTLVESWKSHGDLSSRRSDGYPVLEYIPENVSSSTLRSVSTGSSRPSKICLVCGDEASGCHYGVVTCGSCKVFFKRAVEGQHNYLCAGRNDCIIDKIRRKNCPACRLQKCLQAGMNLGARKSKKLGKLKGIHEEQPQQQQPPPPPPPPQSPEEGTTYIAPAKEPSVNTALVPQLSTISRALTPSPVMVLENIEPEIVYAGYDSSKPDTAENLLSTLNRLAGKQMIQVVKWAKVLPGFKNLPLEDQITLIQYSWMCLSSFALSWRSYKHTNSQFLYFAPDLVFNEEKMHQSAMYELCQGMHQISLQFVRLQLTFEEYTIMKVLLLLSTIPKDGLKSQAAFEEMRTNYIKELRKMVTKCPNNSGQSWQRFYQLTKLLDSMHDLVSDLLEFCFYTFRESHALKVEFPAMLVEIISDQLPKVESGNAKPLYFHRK

C[C@]12CCC(=O)C=C1[C@@H]1C[C@@H]1[C@H]1[C@@H]3[C@@H]4C[C@@H]4[C@@]4(CCC(=O)O4)[C@@]3(C)CC[C@@H]12 [drospirenone, Drospirenone]
bioavailabilities after oral and transdermal administration [1]: roughly the same | blood pressure (hypertensive women): lowered | salt and water retention (in vivo): reduced | affinity for the mineralocorticoid receptor relative to aldosterone [2]: about five times that of aldosterone
